Reference: US10233209B2, “Inhibitors of the farnesoid x receptor and uses in medicine” (The United States of America, as represented by the …, priority 2013, dated 2019)

Experiments:
[1] = tested on: bile salt hydrolase (BSH); assay: fecal bile salt hydrolase activity; type: in vivo, mouse; details: tempol vs vehicle
Protocol: Fecal proteins were prepared from feces samples (0.5 g) in pH 7.4 phosphate buffered saline (PBS, 5.0 mL) using sonication. […] Briefly, incubation was carried out in 3 mM sodium acetate buffer, pH 5.2, containing 0.1 mg/ml fecal protein and 50 μM TCDCA-d5 in a final volume of 200 μL. After a 20 min incubation at 37° C., the reaction was stopped by plunging the samples into dry ice. 100 μL of acetonitrile was directly added to the reaction mix. After centrifuging at 14,000×g for 20 min, 5 μL of the supernatant was transferred to an auto sampler vial subjected to analysis by a UPLC system coupled with a XEVO triple quadrupole tandem mass spectrometer (Waters Corp., Milford, Mass.).

[2] = tested on: high-fat diet-treated Fxr^fl/fl and Fxr^ΔIE mice; assay: body mass gain of tempol-treated mice on a high-fat diet; type: in vivo, mouse; details: high-fat diet 10 weeks
Description: High-fat diet (HFD) (60% kcal consisting of fat) was purchased from Bioserv. […] Fxr^fl/fl and Fxr^ΔIE (Kim et al., J. Lipid Res. 48:2664-2672, 2007) mice were backcrossed with C57BL/6N mice for over 10 generations. For the antibiotic (the combination of bacitracin, neomycin, and streptomycin) study, male C57BL/6N mice from 6 weeks of age were fed a high-fat diet (“HFD) and administered 0.1% (w/v) of each compound (the combination of bacitracin, neomycin, and streptomycin) in the drinking water. […] For TβMCA in vivo, male C57BL/6N mice from 6 weeks of age were fed a HFD and treated with the antibiotics (0.1% of each compound of bacitracin, neomycin, and streptomycin combination) for 3 days. Vehicle (saline), TCA (400 mg/kg body weight, dissolved in saline) or a combination of TCA and TβMCA (400 mg/kg body weight of each compound, dissolved in saline) were orally administered to the mice and followed by a second dose 12 h later. The mice were killed 2 h later for tissue collection. For the Gly-MCA study, Gly-MCA was custom synthesized. […] Cumulative food intake and TEEbal were measured for 1 week in vehicle and Gly-MCA-treated mice from 6 to 7 weeks of HFD. TEEbal was measured as previously described (Ravussin et al., Int. J. Obesity 37:399-403, 2013). […]

SREBP1c-CIDEA pathway = assay: liver mRNA and protein expression (qPCR, western blot); type: in vivo, mouse; details: for protein levels of mature nuclear SREBP1 and CIDEA in the liver: HFD 16 weeks
Protocol: (§1) The mucosa of intestine was gently scraped and liver was taken and both were flash frozen in liquid nitrogen and stored at −80° C. until RNA was prepared. RNA was extracted from frozen intestine and liver using TRIzol reagent (Invitrogen, Carlsbad, Calif.). cDNA was synthesized from 1 μg total RNA using Superscript II reverse transcriptase (Invitrogen, Carlsbad, Calif.). qPCR primers were designed with qPrimerDepot. Measured mRNA levels were normalized to those of 18S ribosomal RNA and expressed as fold change relative to those of control group.
(§2) Liver whole-cell or nuclear extracts were prepared. Membranes were incubated with antibodies against FXR (Santa Cruz Biotechnology, Inc., Santa Cruz, Calif.), SREBP1 (BD Biosciences, San Jose, Calif.), and CIDEA (Abcam, Cambridge, Mass.). The signals obtained were normalized to β-ACTIN (Abcam) for whole cell extract and LAMIN A/C (Santa Cruz) for nuclear extracts.

HFD-induced NAFLD model = assay: HFD-induced NAFLD model: liver histology, liver weight, triglycerides (tempol, antibiotic); type: in vivo, mouse
Description: High-fat diet (HFD) (60% kcal consisting of fat) was purchased from Bioserv. […] Fxr^fl/fl and Fxr^ΔIE (Kim et al., J. Lipid Res. 48:2664-2672, 2007) mice were backcrossed with C57BL/6N mice for over 10 generations. For the antibiotic (the combination of bacitracin, neomycin, and streptomycin) study, male C57BL/6N mice from 6 weeks of age were fed a high-fat diet (“HFD) and administered 0.1% (w/v) of each compound (the combination of bacitracin, neomycin, and streptomycin) in the drinking water. […] For TβMCA in vivo, male C57BL/6N mice from 6 weeks of age were fed a HFD and treated with the antibiotics (0.1% of each compound of bacitracin, neomycin, and streptomycin combination) for 3 days. Vehicle (saline), TCA (400 mg/kg body weight, dissolved in saline) or a combination of TCA and TβMCA (400 mg/kg body weight of each compound, dissolved in saline) were orally administered to the mice and followed by a second dose 12 h later. The mice were killed 2 h later for tissue collection. For the Gly-MCA study, Gly-MCA was custom synthesized. Bacon-flavored dough pills were produced as described (Walker et al., Toxicol. Appl. Pharmacol. 260:65-69, 2012) for oral administration of Gly-MCA (0.25 mg Gly-MCA/pill, dose of 10 mg/kg). Mice were trained to eat the dough pills prior to the study. For the prevention of obesity, insulin resistance and NAFLD, male wild-type (WT) C57BL/6N mice, 6- to 8-weeks-old, were fed a high-fat diet (Bio-Serv, Frenchtown, N.J.; 60 kcal % fat) from the age of 6 weeks and were orally administered with vehicle (control pills) or Gly-MCA (0.25 mg/pill/day, dose 10 mg/kg). C57BL/6N mice fed a high-fat diet for 12 weeks were administered (0.25 mg Gly-MCA/pill, dose of 5 mg/kg). Leptin-deficient db/db mice, 6- to 8-weeks-old, fed a chow diet, were administered Gly-MCA (0.25 mg/pill/day, 10 mg/kg). Mice were housed individually in their home cages. Cumulative food intake and TEEbal were measured for 1 week in vehicle and Gly-MCA-treated mice from 6 to 7 weeks of HFD. TEEbal was measured as previously described (Ravussin et al., Int. J. Obesity 37:399-403, 2013).
Hematoxylin and eosin (H&E) staining were performed on formalin fixed paraffin embedded sections using a standard protocol. Oil red 0 staining was performed on frozen liver sections using a standard protocol. At least three discontinuous liver sections were evaluated for each mouse.
Hepatic lipids were extracted using a 2:1 chloroform-methanol solution. Liver triglycerides were measured with a triglyceride colorimetric assay kit, according to the manufacturer's recommendation (Bioassay Systems, Hayward, Calif.).

primary hepatocytes = assay: ceramide treatment of cultured primary hepatocytes; type: cell-based, mouse
Protocol: Primary hepatocytes from 6-week-old C57BL/6N mice were obtained by collagenase 1 (Invitrogen, Carlsbad, Calif.) perfusion. The cells were purified by 45% Percoll (Sigma, St. Louis, Mo.) density centrifugation and cultured in DMEM (Invitrogen, Carlsbad, Calif.) with 10% fetal bovine serum and 1% Insulin-Transferrin-Selenium-Ethanolamine (ITS-X) (Invitrogen, Carlsbad, Calif.). The viability of hepatocytes was determined using trypan blue dye exclusion, and those with higher than 85% viability were used. The medium was changed to DMEM with 1% fetal bovine serum after culturing for 4 hours. After starvation for 4 hours, the cells were exposed to ceramide. At the prescribed time points, cells were harvested and subjected to qPCR analysis and TG content detection.
as §1, §2

Compound	bile salt hydrolase (BSH) enzymatic activity in the feces [1]	weight gain less than that of vehicle treated mice ([2]; Fxr^fl/fl mice)	weight gain vs vehicle ([2]; Fxr^ΔIE mice)	protein levels of mature nuclear SREBP1 and CIDEA in the liver (SREBP1c-CIDEA pathway; Fxr^ΔIE mice treated with tempol)	inflammation-related genes (Tlr2, Tlr4, Tlr9, Tnfα) mRNA in liver (SREBP1c-CIDEA pathway; HFD 7 weeks)	protein levels of mature nuclear SREBP1 and CIDEA in the liver (SREBP1c-CIDEA pathway; tempol-treated Fxr^fl/fl mice)	liver weights (HFD-induced NAFLD model; Fxr^fl/fl mice, HFD)	hepatic lipid droplets (liver histology) (HFD-induced NAFLD model; Fxr^fl/fl mice, HFD 14 weeks (antibiotic) and 16 weeks (tempol))	hepatic lipid (liver histology) (HFD-induced NAFLD model; Fxr^ΔIE mice, HFD)	hepatic triglyceride content (hepatic steatosis) (HFD-induced NAFLD model; Fxr^ΔIE mice, HFD)	liver weights (HFD-induced NAFLD model; HFD)	hepatic triglyceride (TG) contents decreased to (HFD-induced NAFLD model; HFD, relative to vehicle)	hepatic lipid droplets (liver histology) (HFD-induced NAFLD model; tempol: HFD 16 weeks, antibiotic: HFD 7 weeks)	mRNA of fatty acid synthesis and TG formation genes (Srebp1c, Cidea, Elovl6, Dgat2) (primary hepatocytes; 16 hours, 2, 5, 10 μM ceramide)	mRNA of fatty acid β-oxidation genes (Cpt1, Acox1, Ehhadh, Acaa1a) (primary hepatocytes; 16 hours, 2, 5, 10 μM ceramide)	triglyceride contents in primary hepatocytes (primary hepatocytes; 24 hours, 2, 5, 10 μM ceramide)	protein levels of nuclear SREBP1-N and CIDEA (primary hepatocytes; ceramide 2 μM and 10 μM, 24 hours)
CC1(C)CC(O)CC(C)(C)N1[O] [tempol, 4-hydroxy-2,2,6,6,-tetramethylpiperidine-1-oxyl]	significant downregulation	approximately 65%	insignificant difference in weight gain	no decrease	comparable	significantly reduced	significantly reduced	decreased hepatic lipid droplets	no changes in hepatic lipid	did not alleviate hepatic steatosis	decreased	~35%	significant reduction in hepatic lipid droplets	–	–	–	–
ceramide	–	–	–	–	–	–	–	–	–	–	–	–	–	significantly upregulated	not affected	significantly increased triglyceride contents	significantly induced
